Target: T1, human p38 kinase alpha (Homo sapiens, UniProt Q16539)
T1 construct: GST (N, cleaved yes); made in house; host or cells: E. coli DH10B
Experiment: p38 kinase in vitro assay, phosphorylation of biotinylated PHAS-I with 32P-ATP
Assay type: biochemical
Details: in vitro P38-alpha kinase inhibition; read-out: P38 alpha kinase IC50

T1 sequence (Q16539 whole entry): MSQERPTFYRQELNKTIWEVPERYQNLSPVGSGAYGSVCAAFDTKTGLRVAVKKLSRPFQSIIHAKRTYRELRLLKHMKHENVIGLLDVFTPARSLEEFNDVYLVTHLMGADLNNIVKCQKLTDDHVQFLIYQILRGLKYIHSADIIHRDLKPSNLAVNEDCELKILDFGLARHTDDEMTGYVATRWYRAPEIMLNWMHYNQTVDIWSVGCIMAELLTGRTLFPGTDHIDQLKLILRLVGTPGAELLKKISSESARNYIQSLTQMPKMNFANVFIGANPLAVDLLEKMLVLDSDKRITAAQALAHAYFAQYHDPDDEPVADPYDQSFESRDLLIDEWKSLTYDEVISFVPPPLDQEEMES

**Q.** For `CC(NS(=O)(=O)c1cc(Cl)cc(Cl)c1)c1[nH]nc(-c2ccc(F)cc2)c1-c1ccncc1` (stereo not shown) [Example B-0641], which IC50 is on record?
**A.** Its IC50 is 580 nM.

**Q.** How did the IC50 turn out when `CC(NS(=O)(=O)c1ccc(Cl)c(Cl)c1)c1[nH]nc(-c2ccc(F)cc2)c1-c1ccncc1` (stereo not shown) [Example B-0642] was run?
**A.** Its IC50 is 490 nM.

**Q.** `CC(NS(=O)(=O)c1ccc(F)c(Cl)c1)c1[nH]nc(-c2ccc(F)cc2)c1-c1ccncc1` (stereo not shown) [Example B-0643] was tested. Which IC50 did it give?
**A.** The IC50 was 69 nM.

**Q.** For `Cc1cccc(Cl)c1S(=O)(=O)NC(C)c1[nH]nc(-c2ccc(F)cc2)c1-c1ccncc1` (stereo not shown) [Example B-0644], which IC50 is on record?
**A.** Its IC50 is 58 nM.

**Q.** How did the IC50 turn out when `Cc1ccc(C)c(S(=O)(=O)NC(C)c2[nH]nc(-c3ccc(F)cc3)c2-c2ccncc2)c1` (stereo not shown) [Example B-0645] was run?
**A.** Its IC50 is 580 nM.

**Q.** Which IC50 does the source give for `Cc1ccccc1S(=O)(=O)NC(C)c1[nH]nc(-c2ccc(F)cc2)c1-c1ccncc1` (stereo not shown) [Example B-0646] here?
**A.** The IC50 was 260 nM.

**Q.** Which IC50 does the source give for `COc1ccc(C)cc1S(=O)(=O)NC(C)c1[nH]nc(-c2ccc(F)cc2)c1-c1ccncc1` (stereo not shown) [Example B-0647] here?
**A.** Its IC50 is 1610 nM.

**Q.** With `CC(NS(=O)(=O)c1cccc(C(F)(F)F)c1)c1[nH]nc(-c2ccc(F)cc2)c1-c1ccncc1` (stereo not shown) [Example B-0648] as the molecule, how does the IC50 read?
**A.** The IC50 was under 100 nM.

**Q.** For `CC(NS(=O)(=O)c1ccc2ccccc2c1)c1[nH]nc(-c2ccc(F)cc2)c1-c1ccncc1` (stereo not shown) [Example B-0652], which IC50 is on record?
**A.** The IC50 was 190 nM.

**Q.** For `Cc1noc(C)c1S(=O)(=O)NC(C)c1[nH]nc(-c2ccc(F)cc2)c1-c1ccncc1` (stereo not shown) [Example B-0653], which IC50 is on record?
**A.** The IC50 was 2010 nM.

**Q.** How did the IC50 turn out when `CC(NS(=O)(=O)c1cccc2nonc12)c1[nH]nc(-c2ccc(F)cc2)c1-c1ccncc1` (stereo not shown) [Example B-0654] was run?
**A.** Its IC50 is 5970 nM.

**Q.** For `CC(NS(=O)(=O)c1ccc(C#N)cc1)c1[nH]nc(-c2ccc(F)cc2)c1-c1ccncc1` (stereo not shown) [Example B-0656], which IC50 is on record?
**A.** The IC50 was 7 nM.

**Q.** How did the IC50 turn out when `CC(NS(=O)(=O)c1ccc(CNC(=O)c2ccccc2)s1)c1[nH]nc(-c2ccc(F)cc2)c1-c1ccncc1` (stereo not shown) [Example B-0657] was run?
**A.** Its IC50 is 170 nM.

**Q.** Which IC50 does the source give for `Cc1c(C)c(S(=O)(=O)NC(C)c2[nH]nc(-c3ccc(F)cc3)c2-c2ccncc2)c(C)c2c1OC(C)(C)CC2` (stereo not shown) [Example B-0659] here?
**A.** Its IC50 is 2640 nM.

**Q.** With `CC(NS(=O)(=O)c1ccc(-c2ccccn2)s1)c1[nH]nc(-c2ccc(F)cc2)c1-c1ccncc1` (stereo not shown) [Example B-0660] as the molecule, how does the IC50 read?
**A.** Its IC50 is 88 nM.

**Q.** With `CC(NS(=O)(=O)c1cc(S(=O)(=O)c2ccccc2)cs1)c1[nH]nc(-c2ccc(F)cc2)c1-c1ccncc1` (stereo not shown) [Example B-0661] as the molecule, how does the IC50 read?
**A.** Its IC50 is under 100 nM.

**Q.** With `CC(NS(=O)(=O)c1ccc(-c2ccon2)s1)c1[nH]nc(-c2ccc(F)cc2)c1-c1ccncc1` (stereo not shown) [Example B-0662] as the molecule, how does the IC50 read?
**A.** The IC50 was under 100 nM.

**Q.** How did the IC50 turn out when `CC(NS(=O)(=O)c1cn(C)cn1)c1[nH]nc(-c2ccc(F)cc2)c1-c1ccncc1` (stereo not shown) [Example B-0663] was run?
**A.** Its IC50 is 880 nM.

**Q.** `CC(NS(=O)(=O)c1ccc(S(=O)(=O)c2ccccc2)s1)c1[nH]nc(-c2ccc(F)cc2)c1-c1ccncc1` (stereo not shown) [Example B-0665] was tested. Which IC50 did it give?
**A.** Its IC50 is 470 nM.

**Q.** With `CC(NS(=O)(=O)c1ccccc1S(C)(=O)=O)c1[nH]nc(-c2ccc(F)cc2)c1-c1ccncc1` (stereo not shown) [Example B-0666] as the molecule, how does the IC50 read?
**A.** The IC50 was 170 nM.

**Q.** With `CC(NS(=O)(=O)c1cccc2cnccc12)c1[nH]nc(-c2ccc(F)cc2)c1-c1ccncc1` (stereo not shown) [Example B-0667] as the molecule, how does the IC50 read?
**A.** Its IC50 is 830 nM.

**Q.** How did the IC50 turn out when `Cc1ccc(S(C)(=O)=O)cc1S(=O)(=O)NC(C)c1[nH]nc(-c2ccc(F)cc2)c1-c1ccncc1` (stereo not shown) [Example B-0668] was run?
**A.** The IC50 was 270 nM.

**Q.** For `Cc1ccccc1C(=O)NC(C)c1[nH]nc(-c2ccc(F)cc2)c1-c1ccncc1` (stereo not shown) [Example B-0669], which IC50 is on record?
**A.** The IC50 was 890 nM.

**Q.** How did the IC50 turn out when `CC(NC(=O)c1ccc(Cl)cc1)c1[nH]nc(-c2ccc(F)cc2)c1-c1ccncc1` (stereo not shown) [Example B-0670] was run?
**A.** The IC50 was 3150 nM.

**Q.** `CC(NC(=O)c1cc2ccccc2s1)c1[nH]nc(-c2ccc(F)cc2)c1-c1ccncc1` (stereo not shown) [Example B-0673] was tested. Which IC50 did it give?
**A.** The IC50 was 8540 nM.

**Q.** How did the IC50 turn out when `CC(C)c1cc(C(C)C)c(C(=O)NC(C)c2[nH]nc(-c3ccc(F)cc3)c2-c2ccncc2)c(C(C)C)c1` (stereo not shown) [Example B-0674] was run?
**A.** The IC50 was 2810 nM.

**Q.** Which IC50 does the source give for `CC(NC(=O)c1ccc(F)c(F)c1)c1[nH]nc(-c2ccc(F)cc2)c1-c1ccncc1` (stereo not shown) [Example B-0678] here?
**A.** The IC50 was 380 nM.

**Q.** Which IC50 does the source give for `CC(NC(=O)c1c(F)ccc(F)c1F)c1[nH]nc(-c2ccc(F)cc2)c1-c1ccncc1` (stereo not shown) [Example B-0680] here?
**A.** Its IC50 is 420 nM.

Source: patent publication US6979686B1, “Substituted pyrazoles as p38 kinase inhibitors” (Pharmacia Corporation, priority 2001, dated 2005)
